Results from patent US20260055152A1, “INTRACELLULAR CX3CL1 DOMAIN PEPTIDES AND USES THEREOF” (University of Connecticut, priority 2022, published 2026).

Test system: Akt
Assay: Akt inhibition assay in cultured N2A cells
Type: cell-based, mouse

## NC1(c2ccc(-c3nc4ccn5c(=O)[nH]nc5c4cc3-c3ccccc3)cc2)CCC1 [MK2206]
N2A cells treated with 2 μM Tet34 or controls 24 hrs, then 2 μM MK2206 3hrs
  phosphorylation of GSK3β and Foxo3: diminish
N2A cultures with Tet-CX3CL1-ICD peptides in presence of MK2206
  Tet34 induced effects on Foxo3 phosphorylation: abolished
